In US8716180B2 (priority 2005, dated 2014):
Read-outs that look alike come from different tables or passages of the source.

System: GFP genetically modified strain of F. graminearum
Type: in vivo, Fusarium graminearum
Conditions: seed treatment 5 g a.i./100 kg seeds

Measured: Intensity of F. graminearum (PCR analysis: 0 to 4 scale)

N#Cc1c[nH]cc1-c1cccc2c1OC(F)(F)O2 [Lot B, fludioxonil]
0: Beginning of earing (GS 51), 1st internode | Beginning of earing (GS 51), 2nd internode | Beginning of earing (GS 51), 3rd internode | Beginning of earing (GS 51), 4th internode | Beginning of earing (GS 51), ear | Ear 1-2 cm (GS 31), First internode | Ear 1-2 cm (GS 31), Future internodes and ear | Ear 1-2 cm (GS 31), Second internode | End of tillering (GS 29), Above bottom of the plant (0.5 cm) | End of tillering (GS 29), Bottom of the plant (0.5 cm) | End of tillering (GS 29), Secondary roots | End of tillering (GS 29), primary roots | End of tillering (GS 29), rhizome | Full maturity (GS 94), 1st internode | Full maturity (GS 94), 2nd internode | Full maturity (GS 94), 3rd internode | Full maturity (GS 94), 4th internode | Full maturity (GS 94), 5th internode | Full maturity (GS 94), Ear + grains
